In brackets after ≈: the same amount, converted by molar mass.

For one assay, the system named is Mtb/pNIP40b-hadABC. Briefly: microbe, parasite or virus in culture. It counts as cell-based. As to conditions: Mycobacterium tuberculosis, read-out: MIC Mtb/pNIP40b-hadABC.
The subject of assay [1] is compound 1-resistant Mtb mutants (SRM59, Rv0637/hadC:K157R). It is filed as cell-based, Mycobacterium tuberculosis.
The subject of assay [2] is EthA mutant (C253R) of Mtb. As to conditions: cited from earlier work.

For the compound `O=c1[nH]nc(CCc2cn(-c3ccc(Br)cc3)nc2-c2ccc(Cl)cc2)o1` [Compound 12], the MIC in the assay with Mtb/pNIP40b-hadABC was found to be 12.5 µM (≈ 5.57 µg/mL).
Still for that read-out and setting: the result for `O=C(O)CCc1cn(-c2ccc(Br)cc2)nc1-c1ccc(Cl)cc1` [Compound 10] reads 3 µM (≈ 1.22 µg/mL); that for `CCc1c(COC(=O)NS(C)(=O)=O)c(-c2ccc(Cl)cc2)nn1-c1ccc(Cl)cc1` [Compound 15], 7.8 µM (≈ 3.65 µg/mL).
Same read-out and setting: then `CS(=O)(=O)NC(=O)NCc1cn(-c2ccc(C(F)(F)F)nc2)nc1-c1ccncc1` [Compound 11], with over 40 µM.
For `CS(=O)(=O)NC(=O)CCc1cn(-c2ccc(Br)cc2)nc1-c1ccncc1` [Compound 1], in assay [1], the “Compound 1 MIC, SRM59-1” value is 50 to 100 µM; the “Compound 1 MIC, SRM59-2” value lay within 50 to 100 µM; the “Compound 1 MIC, SRM59-3” value is 50 to 100 µM. For the same compound, the “change in MIC against EthA mutant (C253R)” value in assay [2] is reported as “no change”.
`CS(=O)(=O)c1nnc(Cc2cn(-c3ccc(Cl)cc3)nc2-c2ccncc2)o1` [Compound 13]: in the assay on Mtb/pNIP40b-hadABC, the MIC is 1.9 µM (≈ 0.79 µg/mL).
As for `CC(C)CCOc1ccc(NC(=S)Nc2ccc(OCCC(C)C)cc2)cc1` [ISO, isoxyl, reference compound], the “resistance of EthA mutant (C253R)” value in assay [2] is 4–8 folds.
`CC(=O)Nc1ccc(/C=N/NC(N)=S)cc1` [TAC, thioacetazone, reference compound]: the “resistance of EthA mutant (C253R)” value in assay [2] is 4–8 folds.
With `CS(=O)(=O)NC(=O)CCc1cn(-c2ccc(Cl)cc2)nc1-c1ccc(Cl)cc1` [Compound 2], the MIC in the assay with Mtb/pNIP40b-hadABC was 2.5 µM (≈ 1.1 µg/mL). For the same compound, in assay [2], the “change in MIC against EthA mutant (C253R)” value was “no change”.

The values are drawn from article PMC9673142, “1,3-Diarylpyrazolyl-acylsulfonamides Target HadAB/BC Complex in Mycobacterium tuberculosis” (ACS Infectious Diseases, 2022).
